{"source": "patent US20260001928A1", "about": "(CORTERIA PHARMACEUTICALS, priority 2022, published 2026)", "key": {"CFR1R receptor": {"target": "T1, CFR1R receptor (Homo sapiens, UniProt P34998)", "T1 construct": "host or cells: CHO-K1 (clone 2)", "T1 sequence (P34998 24-415)": "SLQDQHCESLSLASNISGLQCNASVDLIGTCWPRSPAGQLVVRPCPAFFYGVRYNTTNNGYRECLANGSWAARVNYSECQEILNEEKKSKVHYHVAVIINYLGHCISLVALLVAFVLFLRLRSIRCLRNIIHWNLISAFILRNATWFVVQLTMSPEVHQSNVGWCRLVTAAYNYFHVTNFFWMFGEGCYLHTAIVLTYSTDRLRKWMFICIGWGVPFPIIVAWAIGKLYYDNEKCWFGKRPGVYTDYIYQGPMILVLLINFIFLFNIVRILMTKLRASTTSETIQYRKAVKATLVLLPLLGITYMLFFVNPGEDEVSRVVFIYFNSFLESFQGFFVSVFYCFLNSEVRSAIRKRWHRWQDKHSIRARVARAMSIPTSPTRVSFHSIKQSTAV", "test": "Activity at anti-target CFR1R receptor, cAMP assay in CRF1R-overexpression CHO-K1 cells", "type": "cell-based", "settings": "100% = Sauvagine at 100 nM; for pEC50: cAMP", "outline": "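Grow clone 2 to near confluence at 37° C. under 5% CO2 in F12 (Hams) with 10% FBS and G418, harvest, and freeze in 10% DMSO. Thaw and plate at 4000 cells/well. Then proceed per the TeloHAEC method, normalising to Sauvagine 100 nM as maximum.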"}, "human CRF2a receptor": {"target": "T2, human CRF2a receptor (Homo sapiens, UniProt Q13324)", "T2 construct": "expressed in transfected cells; host or cells: TeloHEAC cells", "T2 sequence (Q13324 1-411)": "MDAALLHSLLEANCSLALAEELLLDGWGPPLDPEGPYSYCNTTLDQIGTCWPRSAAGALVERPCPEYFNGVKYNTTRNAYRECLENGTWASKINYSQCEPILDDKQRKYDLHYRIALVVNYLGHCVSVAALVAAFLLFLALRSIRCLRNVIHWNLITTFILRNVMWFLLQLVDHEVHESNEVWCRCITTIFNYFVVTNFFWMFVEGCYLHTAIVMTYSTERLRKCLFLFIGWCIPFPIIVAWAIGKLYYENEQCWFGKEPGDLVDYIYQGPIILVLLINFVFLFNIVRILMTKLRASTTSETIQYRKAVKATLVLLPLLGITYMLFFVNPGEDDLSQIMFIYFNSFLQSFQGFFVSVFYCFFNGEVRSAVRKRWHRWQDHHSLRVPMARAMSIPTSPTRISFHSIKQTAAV", "test": "Activity at human CRF2a receptor, cAMP functional assay in TeloHEAC cells", "type": "cell-based", "settings": "TeloHEAC cells stably expressing human CRF2a receptor, relative to urocortin 2 (100 nM = 100%)", "outline": "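cAMP accumulation was measured by HTRF 665/620 nm ratio after 30 min at 37° C compound exposure (16 twofold dilutions) of CRF2a-expressing TeloHEAC cells, 10000/well, in HEPES-buffered HBSS plus IBMX. Activity was normalised to urocortin 2 at 100 nM (100%), and EC50 was the concentration giving half-maximal activation.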"}}, "note": "pEC50: −log10 of the molar value. *1 amine or outer side, *2 acyl side, *3 side chain or, on linkers, in order; H or OH if unused. Where a SMILES comes first, the peptide text is derived from it. Side-chain parts run from the residue outwards. [ ]: non-standard residue; d: D form. The star is where a group is joined. C18 diacid = O=C(O)CCCCCCCCCCCCCCCCC(=O)*; C16 diacid = O=C(O)CCCCCCCCCCCCCCC(=O)*; γGlu = O=C(O)[C@H](CCC(=O)[*:2])N[*:1]; NMeI = CC[C@H](C)[C@H](NC)C(=O)O; Api = NC1(C(=O)O)CCNCC1; Abu = CC[C@H](N)C(=O)O; Hexanoyl = CCCCCC(=O)*; AEEA = NCCOCCOCC(=O)O; Aib = CC(C)(N)C(=O)O"}
{"smiles": "CC[C@H](C)[C@H](NC)C(=O)N[C@H](C(=O)N[C@@H](CC(C)C)C(=O)N[C@@H](CO)C(=O)N[C@@H](CC(C)C)C(=O)N[C@@H](CC(=O)O)C(=O)N[C@@H](C(=O)N1CCC[C@H]1C(=O)N[C@H](C(=O)N[C@@H](CCCCN)C(=O)N[C@@H](CC(C)C)C(=O)N[C@@H](CCCCNC(=O)CC[C@H](NC(=O)CCCCCCCCCCCCCCC(=O)O)C(=O)O)C(=O)N[C@@H](CCCCN)C(=O)N[C@H](C(=O)N[C@@H](CC(C)C)C(=O)N[C@@H](CC(C)C)C(=O)N[C@@H](CCC(=O)O)C(=O)N[C@@H](CCC(N)=O)C(=O)N[C@@H](CCC(=O)O)C(=O)N[C@@H](CCCCN)C(=O)N[C@@H](CCC(N)=O)C(=O)N[C@@H](CCCCN)C(=O)N[C@@H](CCCCN)C(=O)N[C@@H](CCC(N)=O)C(=O)N[C@@H](CCCNC(=N)N)C(=O)N[C@@H](CCC(=O)O)C(=O)N[C@@H](CCC(N)=O)C(=O)N[C@@H](C)C(=O)N[C@@H](CCC(=O)O)C(=O)N[C@H](C(=O)N[C@@H](CC(N)=O)C(=O)N[C@@H](CCC(=O)O)C(=O)N[C@@H](CCC(N)=O)C(=O)N[C@H](C(=O)N[C@@H](CC(C)C)C(=O)N[C@@H](C)C(=O)N[C@@H](CCC(N)=O)C(=O)N[C@H](C(N)=O)C(C)C)[C@@H](C)CC)[C@@H](C)O)[C@@H](C)CC)[C@@H](C)CC)C(C)C)C(C)C", "note": "[compound 71] (H-[NMeI]VLSLD[dV]PIKLK([γGlu-C16 diacid])KILLEQEKQKKQREQAETNEQILAQV-NH2)", "values": [{"measurement": "Emax (% I)", "setting": "CFR1R receptor", "result": "−4", "unit": "% I"}, {"measurement": "pEC50", "setting": "CFR1R receptor", "result": "< 6.60"}, {"measurement": "pEC50", "setting": "human CRF2a receptor", "result": 9.68}]}
{"smiles": "CC[C@H](C)[C@H](NC(C)=O)C(=O)N[C@H](C(=O)N[C@@H](CC(C)C)C(=O)N[C@@H](CO)C(=O)N[C@@H](CC(C)C)C(=O)N[C@@H](CC(=O)O)C(=O)N[C@@H](C(=O)N1CCC[C@H]1C(=O)N[C@H](C(=O)N[C@@H](CCCCN)C(=O)N[C@@H](CC(C)C)C(=O)N[C@@H](CCCCNC(=O)CC[C@H](NC(=O)CCCCCCCCCCCCCCC(=O)O)C(=O)O)C(=O)N[C@@H](CCC(N)=O)C(=O)NC(C)(C)C(=O)N[C@@H](CC(C)C)C(=O)N[C@@H](CC(C)C)C(=O)N[C@@H](CCCCN)C(=O)N[C@@H](CCC(N)=O)C(=O)N[C@@H](CCC(=O)O)C(=O)N[C@@H](CCCNC(=N)N)C(=O)N[C@@H](CCC(N)=O)C(=O)N[C@@H](CCCCN)C(=O)N[C@@H](CCCCN)C(=O)N[C@@H](CCC(N)=O)C(=O)N[C@@H](CCCNC(=N)N)C(=O)N[C@@H](CCC(=O)O)C(=O)N[C@@H](CCC(N)=O)C(=O)N[C@@H](C)C(=O)N[C@@H](CCC(=O)O)C(=O)N[C@@H](CCCCN)C(=O)N[C@@H](CC(N)=O)C(=O)N[C@H](C(=O)N[C@@H](CCC(N)=O)C(=O)N[C@H](C(=O)N[C@@H](CC(C)C)C(=O)N[C@@H](CCC(=O)O)C(=O)N[C@@H](CCC(N)=O)C(=O)N[C@H](C(N)=O)C(C)C)[C@@H](C)CC)C(C)C)[C@@H](C)CC)C(C)C)C(C)C", "note": "[compound 18] (Ac-IVLSLD[dV]PIKLK([γGlu-C16 diacid])Q[Aib]LLKQERQKKQREQAEKNVQILEQV-NH2)", "values": [{"measurement": "Emax (% I)", "setting": "CFR1R receptor", "result": 10, "unit": "% I"}, {"measurement": "pEC50", "setting": "CFR1R receptor", "result": "< 6.60"}, {"measurement": "pEC50", "setting": "human CRF2a receptor", "result": 8.45}]}
{"smiles": "CC[C@H](C)[C@H](NC(C)=O)C(=O)N[C@H](C(=O)N[C@@H](CC(C)C)C(=O)N[C@@H](CO)C(=O)N[C@@H](CC(C)C)C(=O)N[C@@H](CC(=O)O)C(=O)N[C@H](C(=O)N1CCC[C@H]1C(=O)N[C@H](C(=O)N[C@@H](CCCCN)C(=O)N[C@@H](CC(C)C)C(=O)N[C@@H](CCCCNC(=O)COCCOCCNC(=O)COCCOCCNC(=O)CC[C@H](NC(=O)CCCCCCCCCCCCCCCCC(=O)O)C(=O)O)C(=O)N[C@@H](CCCCN)C(=O)N[C@H](C(=O)N[C@@H](CC(C)C)C(=O)N[C@@H](CC(C)C)C(=O)N[C@@H](CCC(=O)O)C(=O)N[C@@H](CCC(N)=O)C(=O)N[C@@H](CCC(=O)O)C(=O)N[C@@H](CCCCN)C(=O)N[C@@H](CCC(N)=O)C(=O)N[C@@H](CCCCN)C(=O)N[C@@H](CCCCN)C(=O)N[C@@H](CCC(N)=O)C(=O)N[C@@H](CCCNC(=N)N)C(=O)N[C@@H](CCC(=O)O)C(=O)N[C@@H](CCC(N)=O)C(=O)N[C@@H](C)C(=O)N[C@@H](CCC(=O)O)C(=O)N[C@H](C(=O)N[C@@H](CC(N)=O)C(=O)NC(C)(C)C(=O)N[C@@H](CCC(N)=O)C(=O)N[C@H](C(=O)N[C@@H](CC(C)C)C(=O)N[C@@H](C)C(=O)N[C@@H](CCC(N)=O)C(=O)N[C@H](C(N)=O)C(C)C)[C@@H](C)CC)[C@@H](C)O)[C@@H](C)CC)[C@@H](C)CC)C(C)C)C(C)C", "note": "[compound 97] (Ac-IVLSLDVPIKLK([AEEA-AEEA-γGlu-C18 diacid])KILLEQEKQKKQREQAETN[Aib]QILAQV-NH2)", "values": [{"measurement": "Emax (% I)", "setting": "CFR1R receptor", "result": 0, "unit": "% I"}, {"measurement": "pEC50", "setting": "CFR1R receptor", "result": "< 6.60"}, {"measurement": "pEC50", "setting": "human CRF2a receptor", "result": 8.50}]}
{"smiles": "CCCCCC(=O)N[C@H](C(=O)N[C@@H](CC(C)C)C(=O)N[C@@H](CO)C(=O)N[C@@H](CC(C)C)C(=O)N[C@@H](CC(=O)O)C(=O)N[C@@H](C(=O)N1CCC[C@H]1C(=O)N[C@H](C(=O)N[C@@H](CCCCN)C(=O)N[C@@H](CC(C)C)C(=O)N[C@@H](CCCCNC(=O)CC[C@H](NC(=O)CCCCCCCCCCCCCCC(=O)O)C(=O)O)C(=O)N[C@@H](CCCCN)C(=O)N[C@H](C(=O)N[C@@H](CC(C)C)C(=O)N[C@@H](CC(C)C)C(=O)N[C@@H](CCC(=O)O)C(=O)N[C@@H](CCC(N)=O)C(=O)N[C@@H](CCC(=O)O)C(=O)N[C@@H](CCCCN)C(=O)N[C@@H](CCC(N)=O)C(=O)N[C@@H](CCCCN)C(=O)N[C@@H](CCCCN)C(=O)N[C@@H](CCC(N)=O)C(=O)N[C@@H](CCCNC(=N)N)C(=O)N[C@@H](CCC(=O)O)C(=O)N[C@@H](CCC(N)=O)C(=O)N[C@@H](C)C(=O)N[C@@H](CCC(=O)O)C(=O)N[C@H](C(=O)N[C@@H](CC(N)=O)C(=O)NC1(C(=O)N[C@@H](CCC(N)=O)C(=O)N[C@H](C(=O)N[C@@H](CC(C)C)C(=O)N[C@@H](C)C(=O)N[C@@H](CCC(N)=O)C(=O)N[C@H](C(N)=O)C(C)C)[C@@H](C)CC)CCNCC1)[C@@H](C)O)[C@@H](C)CC)[C@@H](C)CC)C(C)C)C(C)C", "note": "[compound 157] (Hexanoyl-VLSLD[dV]PIKLK([γGlu-C16 diacid])KILLEQEKQKKQREQAETN[Api]QILAQV-NH2)", "values": [{"measurement": "Emax (% I)", "setting": "CFR1R receptor", "result": 30, "unit": "% I"}, {"measurement": "pEC50", "setting": "CFR1R receptor", "result": "< 6.60"}, {"measurement": "pEC50", "setting": "human CRF2a receptor", "result": 9.49}]}
{"smiles": "CC[C@H](NC(=O)[C@H](CC(N)=O)NC(=O)[C@@H](NC(=O)[C@H](CCC(=O)O)NC(=O)[C@H](C)NC(=O)[C@H](CCC(N)=O)NC(=O)[C@H](CCC(=O)O)NC(=O)[C@H](CCCNC(=N)N)NC(=O)[C@H](CCC(N)=O)NC(=O)[C@H](CCCCN)NC(=O)[C@H](CCCCN)NC(=O)[C@H](CCC(N)=O)NC(=O)[C@H](CCCCN)NC(=O)[C@H](CCC(=O)O)NC(=O)[C@H](CCC(N)=O)NC(=O)[C@H](CCC(=O)O)NC(=O)[C@H](CC(C)C)NC(=O)[C@H](CC(C)C)NC(=O)[C@@H](NC(=O)[C@H](CCCCN)NC(=O)[C@H](CCCCNC(=O)CC[C@H](NC(=O)CCCCCCCCCCCCCCCCC(=O)O)C(=O)O)NC(=O)[C@H](CC(C)C)NC(=O)[C@H](CCCCN)NC(=O)[C@@H](NC(=O)[C@@H]1CCCN1C(=O)[C@H](NC(=O)[C@H](CC(=O)O)NC(=O)[C@H](CC(C)C)NC(=O)[C@H](CO)NC(=O)[C@H](CC(C)C)NC(=O)[C@@H](NC(=O)[C@@H](NC(C)=O)[C@@H](C)CC)C(C)C)C(C)C)[C@@H](C)CC)[C@@H](C)CC)[C@@H](C)O)C(=O)N[C@@H](CCC(N)=O)C(=O)N[C@H](C(=O)N[C@@H](CC(C)C)C(=O)N[C@@H](C)C(=O)N[C@@H](CCC(N)=O)C(=O)N[C@H](C(N)=O)C(C)C)[C@@H](C)CC", "note": "[compound 127] (Ac-IVLSLD[dV]PIKLK([γGlu-C18 diacid])KILLEQEKQKKQREQAETN[Abu]QILAQV-NH2)", "values": [{"measurement": "Emax (% I)", "setting": "CFR1R receptor", "result": 11, "unit": "% I"}, {"measurement": "pEC50", "setting": "CFR1R receptor", "result": "< 6.60"}, {"measurement": "pEC50", "setting": "human CRF2a receptor", "result": 10.10}]}
